Test results as given in patent US8680094B2, “1, 4-benzoxazine compounds and derivatives thereof as therapeutic drugs for the treatment of neurodegenerative conditions” (Board of Regents, The University of Texas System, priority 2008, dated 2014).

Experiments:
[1] = target: T1, B-Raf (Homo sapiens, UniProt P15056); test: In vitro kinase activity; assay type: biochemical; details: percentage of control assays without compound, mean of duplicate
T1 construct: in some cases SignalChem; host or cells: Sf9 insect cells (baculovirus)
Experimental: (§1) To better understand the mechanism of action of the compounds of the present invention, but in no way a limitation; the effects of HSB-13 and ASK-2a on 20 different kinases were examined in vitro. At 500 nM concentration, ASK-2a inhibited the kinase activities of GSK3α, GSK3β, p38α, p38β, JNK3, MLK3, and B-Raf substantially. […] As described above, ASK-2a protects cerebellar granule neurons against LK-induced death but is ineffective against HCA-induced toxicity of HT-22 cells. In contrast, HSB-13 is protective in both paradigms. […] Previous studies have established that CDK inhibitors can protect neurons against a number of different apoptotic stimuli.
(§2) The activity of each kinase was measured in vitro in the presence either 100 nM or 500 nM ASK-2a. Kinase activity is expressed as a percentage of that in control assays (without ASK-2a). The values are mean of assays performed in duplicate. Substantial inhibition of kinase activity (>20%) is in bold type.
(§3) Table 3: Effect of HSB-13 at 500 nM on 20 different kinases measured in vitro. Kinase activity is expressed as a percentage of that in control assays (without HSB-13). The values are mean of assays performed in duplicate. Substantial inhibition of kinase activity (>20%) is in bold type.
(§4) Effect of chemical compounds c-Raf and B-Raf purified from insect cells. In vitro kinase assays were performed using purified kinase (expressed by baculovirus in Sf9 insect cells) and synthetic substrates under standard conditions using the Kinase Profiling service of Upstate Biotechnology. Briefly, for each assay 5-10 mU of purified kinase is incubated with the chemical compound (0.1-1 uM concentration) in a buffer containing 8 mM MOPS, pH 7.2, 0.2 mM EDTA, 10 mM Mg Acetate and [γ-^33P-ATP] for 40 min at room temperature. MBP is used as substrate. Kinase activity is quantified by measuring ^33P incorporation by spotting an aliquot on P30 filters, washing in 50 mM phosphoric acid and scintillation counting.
(§5) In some cases, effects on c-Raf and B-Raf are assayed by SignalChem as follows. Protein kinase assays (in duplicate or triplicate) were performed at ambient temperature for 20-40 minutes in a final volume of 25 μl. The assay was initiated by the addition of ^33P-ATP and the reaction mixture incubated at ambient temperature for 20-40 minutes, depending on the protein kinase target. After the incubation period, the assay was terminated by spotting 10 μl of the reaction mixture onto Multiscreen phosphocellulose P81 plate. The Multiscreen phosphocellulose P81 plate was washed 3 times for approximately 15 minutes each in a 1% phosphoric acid solution.
(§6) The radioactivity on the P81 plate was counted in the presence of scintillation fluid in a Trilux scintillation counter. Blank control is included all the assay components except the addition of the appropriate substrate (replace with equal volume of assay dilution buffer), was set up for each protein kinase target. The corrected activity for each protein kinase target was determined by removing the blank control value.

[2] = target: T2, c-Raf (Homo sapiens, UniProt P04049); test: In vitro kinase activity; assay type: biochemical; details: percentage of control assays without compound, mean of duplicate
T2 construct: in some cases SignalChem; host or cells: Sf9 insect cells (baculovirus)
Experimental: as §1, §2, §3, §4, §5, §6

[3] = test system: ATF-3; test: Western blot of ATF-3 expression in LK-treated cerebellar granule neurons; assay type: cell-based, rat; details: 25 μM, 3 h
Experimental: Cerebellar neuron cultures were treated for 3 h with HK, LK, or LK medium containing 25 μM HSB-13, 25 μM ASK-2a, or 25 μM HSB-22. Whole cell lysates were then prepared and subjected to Western blot analysis using antibodies against c-jun and ATF-3.
(§7) The culture medium was removed and the cells were washed twice with ice-cold phosphate-buffered saline (PBS) and lysed in lysis buffer [1% Triton, 20 mM Tris-HCl (pH 7.5), 150 mM NaCl, 1 mM Na2EDTA, 1 mM EGTA, 2.5 mM sodium pyrophosphate, 1 mM beta-glycerophosphate, 1 mM Na3VO4, 1 μg/mL leupeptin and 1 protease inhibitor mixture]. Protein concentrations were measured and normalized using Bradford protein assay reagent (Bio-Rad, Hercules, Calif., USA). Following normalization, 40 μg of protein was subjected to Western blotting. Immunoreactivity was examined by enhanced chemiluminescence (Amersham Bioscience, Piscataway, N.J., USA).
C-jun expression is induced in a variety of tissue culture and in vivo paradigms of neuronal apoptosis (Schenkel et al., 2004). […] Treatment with HSB-13 inhibited c-jun expression even lower that that seen in HK-treated cultures. […] The suppression of ATF-3 expression using siRNA inhibits LK-mediated death of cerebellar granule neurons has been previously been described by the present inventors (Chen et al., 2008a). […] As observed with c-jun, the suppression was most robust with HSB-13. As a result these compositions can inhibit the activity of c-jun and ATF-3, which in turn play a role in treating cancer and oncoproteins like c-jun.

[4] = test system: phospho-GSK3β; test: Western blot of signaling proteins in LK-treated cerebellar granule neurons: phospho-GSK3β; assay type: cell-based, rat; details: LK medium with compound, 3 h
Experimental: Cultures of cerebellar granule neurons were switched to HK medium, LK medium, or LK medium containing of HSB-13, HSB-22, or ASK-2a for 3 h. Total cell lysates were prepared and analyzed by Western blotting using antibodies against phospho-Akt (Ser473), phospho-MEK, phospho-ERK, and phospho-GSK3β.
as §7
Since the Raf-MEK-ERK and the PI-3 Kinase-Akt pathways are not required for neuroprotection by HSB-13, the involvement of other signaling molecules that are known to promote neuronal survival was determined. GSK3β is a proapoptotic molecule that is activated during apoptosis in many neuronal and non-neuronal systems. Under survival promoting conditions GSK3β is kept inactivated by phosphorylation at an inhibitory site, a modification that can be induced by Akt as well as by other kinases.

[5] = target: p38α (Homo sapiens, UniProt Q16539); test: In vitro kinase activity; assay type: biochemical; details: percentage of control assays without compound, mean of duplicate
Experimental: as §1, §2, §3

[6] = target: GSK3α (Homo sapiens, UniProt P49840); test: In vitro kinase activity; assay type: biochemical; details: percentage of control assays without compound, mean of duplicate
Experimental: as §1, §2, §3

[7] = target: DAPK1 (Homo sapiens, UniProt P53355); test: In vitro kinase activity; assay type: biochemical; details: percentage of control assays without compound, mean of duplicate
Experimental: as §1, §2, §3

[8] = target: CDK5/p25 (Homo sapiens, UniProt Q00535); test: In vitro kinase activity; assay type: biochemical; details: percentage of control assays without compound, mean of duplicate
Experimental: as §1, §2, §3

[9] = target: MEKK1 (Homo sapiens, UniProt Q13233); test: In vitro kinase activity; assay type: biochemical; details: percentage of control assays without compound, mean of duplicate
Experimental: as §1, §2, §3

[10] = target: CDK1/Cylcin A1 (Homo sapiens, UniProt P06493); test: In vitro kinase activity; assay type: biochemical; details: percentage of control assays without compound, mean of duplicate
Experimental: as §1, §2, §3

[11] = target: JNK2 (Homo sapiens, UniProt P45984); test: In vitro kinase activity; assay type: biochemical; details: percentage of control assays without compound, mean of duplicate
Experimental: as §1, §2, §3

[12] = 100 nM, listed as ASK2a, 0.1 µM

T1 sequence (P15056 whole entry): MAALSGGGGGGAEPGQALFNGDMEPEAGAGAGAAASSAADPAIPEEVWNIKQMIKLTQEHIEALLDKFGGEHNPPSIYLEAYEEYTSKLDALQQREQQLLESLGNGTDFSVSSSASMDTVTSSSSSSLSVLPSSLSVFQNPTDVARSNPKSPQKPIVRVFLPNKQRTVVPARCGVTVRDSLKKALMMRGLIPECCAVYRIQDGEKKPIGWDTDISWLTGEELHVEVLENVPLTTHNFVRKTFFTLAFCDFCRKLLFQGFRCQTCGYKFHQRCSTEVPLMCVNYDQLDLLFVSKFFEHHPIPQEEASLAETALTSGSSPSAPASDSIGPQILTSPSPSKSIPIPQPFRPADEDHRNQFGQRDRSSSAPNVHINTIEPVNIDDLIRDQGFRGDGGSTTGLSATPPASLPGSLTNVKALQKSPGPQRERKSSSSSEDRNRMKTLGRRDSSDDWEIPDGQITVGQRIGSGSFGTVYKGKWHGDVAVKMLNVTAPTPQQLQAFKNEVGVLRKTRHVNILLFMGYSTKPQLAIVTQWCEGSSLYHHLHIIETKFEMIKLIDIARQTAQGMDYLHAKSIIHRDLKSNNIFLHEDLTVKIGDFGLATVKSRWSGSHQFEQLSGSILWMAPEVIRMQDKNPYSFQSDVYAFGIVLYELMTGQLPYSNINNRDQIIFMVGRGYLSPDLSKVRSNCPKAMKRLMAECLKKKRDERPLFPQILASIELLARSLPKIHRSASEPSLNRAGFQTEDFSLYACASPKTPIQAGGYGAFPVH
MEKK1, sequence (Q13233 whole entry, species assumed): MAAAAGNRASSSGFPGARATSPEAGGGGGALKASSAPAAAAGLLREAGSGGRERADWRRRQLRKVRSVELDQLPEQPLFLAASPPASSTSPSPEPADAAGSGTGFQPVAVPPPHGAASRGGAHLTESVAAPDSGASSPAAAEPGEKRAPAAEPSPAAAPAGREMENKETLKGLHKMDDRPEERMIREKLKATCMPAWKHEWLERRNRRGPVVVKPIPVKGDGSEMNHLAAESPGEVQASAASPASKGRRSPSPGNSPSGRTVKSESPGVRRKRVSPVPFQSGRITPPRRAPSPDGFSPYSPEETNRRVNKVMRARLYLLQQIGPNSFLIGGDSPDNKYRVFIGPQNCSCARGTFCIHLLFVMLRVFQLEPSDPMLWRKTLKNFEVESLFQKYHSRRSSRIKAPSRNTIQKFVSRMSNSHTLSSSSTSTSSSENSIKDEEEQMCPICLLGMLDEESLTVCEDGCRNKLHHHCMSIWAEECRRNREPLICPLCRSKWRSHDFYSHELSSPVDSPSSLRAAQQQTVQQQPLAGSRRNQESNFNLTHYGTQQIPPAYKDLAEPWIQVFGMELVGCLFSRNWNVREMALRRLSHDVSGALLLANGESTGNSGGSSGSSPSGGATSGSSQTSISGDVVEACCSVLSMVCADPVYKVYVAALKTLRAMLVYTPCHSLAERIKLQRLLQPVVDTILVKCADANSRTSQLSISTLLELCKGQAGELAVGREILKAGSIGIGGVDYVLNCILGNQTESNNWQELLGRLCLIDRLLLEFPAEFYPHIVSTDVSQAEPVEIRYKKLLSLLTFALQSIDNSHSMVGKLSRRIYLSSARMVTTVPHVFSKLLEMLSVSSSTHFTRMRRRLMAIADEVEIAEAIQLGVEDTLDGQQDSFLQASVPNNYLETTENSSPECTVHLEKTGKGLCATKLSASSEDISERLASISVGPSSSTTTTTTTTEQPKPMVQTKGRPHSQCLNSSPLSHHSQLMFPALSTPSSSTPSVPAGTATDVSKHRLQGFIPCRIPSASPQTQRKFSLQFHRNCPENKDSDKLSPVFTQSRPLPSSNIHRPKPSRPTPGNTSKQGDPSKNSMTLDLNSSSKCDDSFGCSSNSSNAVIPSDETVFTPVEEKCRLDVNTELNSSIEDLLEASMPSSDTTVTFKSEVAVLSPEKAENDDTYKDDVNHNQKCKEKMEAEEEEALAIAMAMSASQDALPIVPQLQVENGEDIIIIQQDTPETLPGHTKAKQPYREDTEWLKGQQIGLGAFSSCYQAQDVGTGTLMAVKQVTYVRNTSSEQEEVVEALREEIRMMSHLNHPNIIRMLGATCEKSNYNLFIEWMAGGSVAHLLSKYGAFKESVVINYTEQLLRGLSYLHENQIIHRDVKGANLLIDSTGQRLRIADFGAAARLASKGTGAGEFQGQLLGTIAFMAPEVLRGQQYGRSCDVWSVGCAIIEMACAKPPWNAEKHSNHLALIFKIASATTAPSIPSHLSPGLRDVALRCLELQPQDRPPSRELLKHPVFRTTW
JNK2, sequence (P45984 whole entry, species assumed): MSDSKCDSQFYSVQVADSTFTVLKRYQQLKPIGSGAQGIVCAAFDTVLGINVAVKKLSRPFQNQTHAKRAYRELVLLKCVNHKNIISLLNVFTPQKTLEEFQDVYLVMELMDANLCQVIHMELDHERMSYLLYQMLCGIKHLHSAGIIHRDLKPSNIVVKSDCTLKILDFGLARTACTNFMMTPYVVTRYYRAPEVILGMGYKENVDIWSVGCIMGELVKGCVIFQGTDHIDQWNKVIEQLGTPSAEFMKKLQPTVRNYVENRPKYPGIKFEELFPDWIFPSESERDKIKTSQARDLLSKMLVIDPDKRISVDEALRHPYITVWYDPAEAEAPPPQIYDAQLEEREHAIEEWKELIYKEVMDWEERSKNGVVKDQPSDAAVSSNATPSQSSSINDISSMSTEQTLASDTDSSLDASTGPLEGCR
GSK3α, sequence (P49840 whole entry, species assumed): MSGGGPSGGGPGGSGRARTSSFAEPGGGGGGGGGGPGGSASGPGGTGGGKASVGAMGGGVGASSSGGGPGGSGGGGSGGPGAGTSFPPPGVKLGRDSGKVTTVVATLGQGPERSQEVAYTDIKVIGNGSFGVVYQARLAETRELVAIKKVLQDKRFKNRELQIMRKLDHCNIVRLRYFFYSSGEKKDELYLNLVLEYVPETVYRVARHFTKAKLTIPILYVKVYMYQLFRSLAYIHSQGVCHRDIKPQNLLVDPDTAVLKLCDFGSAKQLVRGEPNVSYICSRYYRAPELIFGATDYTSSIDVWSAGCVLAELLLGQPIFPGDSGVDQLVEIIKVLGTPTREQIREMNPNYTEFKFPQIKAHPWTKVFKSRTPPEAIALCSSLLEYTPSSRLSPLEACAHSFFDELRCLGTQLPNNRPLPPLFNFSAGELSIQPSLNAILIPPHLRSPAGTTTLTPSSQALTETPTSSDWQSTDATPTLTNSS
p38α, sequence (Q16539 whole entry): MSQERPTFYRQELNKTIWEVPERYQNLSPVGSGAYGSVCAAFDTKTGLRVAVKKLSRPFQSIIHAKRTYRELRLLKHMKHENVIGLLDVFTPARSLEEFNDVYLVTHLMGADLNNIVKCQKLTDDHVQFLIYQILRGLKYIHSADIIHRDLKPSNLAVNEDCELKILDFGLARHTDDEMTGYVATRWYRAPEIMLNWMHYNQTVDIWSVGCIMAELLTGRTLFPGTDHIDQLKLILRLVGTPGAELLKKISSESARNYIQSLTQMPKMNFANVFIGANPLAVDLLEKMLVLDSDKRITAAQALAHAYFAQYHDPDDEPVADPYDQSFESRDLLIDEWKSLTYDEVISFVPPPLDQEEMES
DAPK1, sequence (P53355 whole entry, species assumed): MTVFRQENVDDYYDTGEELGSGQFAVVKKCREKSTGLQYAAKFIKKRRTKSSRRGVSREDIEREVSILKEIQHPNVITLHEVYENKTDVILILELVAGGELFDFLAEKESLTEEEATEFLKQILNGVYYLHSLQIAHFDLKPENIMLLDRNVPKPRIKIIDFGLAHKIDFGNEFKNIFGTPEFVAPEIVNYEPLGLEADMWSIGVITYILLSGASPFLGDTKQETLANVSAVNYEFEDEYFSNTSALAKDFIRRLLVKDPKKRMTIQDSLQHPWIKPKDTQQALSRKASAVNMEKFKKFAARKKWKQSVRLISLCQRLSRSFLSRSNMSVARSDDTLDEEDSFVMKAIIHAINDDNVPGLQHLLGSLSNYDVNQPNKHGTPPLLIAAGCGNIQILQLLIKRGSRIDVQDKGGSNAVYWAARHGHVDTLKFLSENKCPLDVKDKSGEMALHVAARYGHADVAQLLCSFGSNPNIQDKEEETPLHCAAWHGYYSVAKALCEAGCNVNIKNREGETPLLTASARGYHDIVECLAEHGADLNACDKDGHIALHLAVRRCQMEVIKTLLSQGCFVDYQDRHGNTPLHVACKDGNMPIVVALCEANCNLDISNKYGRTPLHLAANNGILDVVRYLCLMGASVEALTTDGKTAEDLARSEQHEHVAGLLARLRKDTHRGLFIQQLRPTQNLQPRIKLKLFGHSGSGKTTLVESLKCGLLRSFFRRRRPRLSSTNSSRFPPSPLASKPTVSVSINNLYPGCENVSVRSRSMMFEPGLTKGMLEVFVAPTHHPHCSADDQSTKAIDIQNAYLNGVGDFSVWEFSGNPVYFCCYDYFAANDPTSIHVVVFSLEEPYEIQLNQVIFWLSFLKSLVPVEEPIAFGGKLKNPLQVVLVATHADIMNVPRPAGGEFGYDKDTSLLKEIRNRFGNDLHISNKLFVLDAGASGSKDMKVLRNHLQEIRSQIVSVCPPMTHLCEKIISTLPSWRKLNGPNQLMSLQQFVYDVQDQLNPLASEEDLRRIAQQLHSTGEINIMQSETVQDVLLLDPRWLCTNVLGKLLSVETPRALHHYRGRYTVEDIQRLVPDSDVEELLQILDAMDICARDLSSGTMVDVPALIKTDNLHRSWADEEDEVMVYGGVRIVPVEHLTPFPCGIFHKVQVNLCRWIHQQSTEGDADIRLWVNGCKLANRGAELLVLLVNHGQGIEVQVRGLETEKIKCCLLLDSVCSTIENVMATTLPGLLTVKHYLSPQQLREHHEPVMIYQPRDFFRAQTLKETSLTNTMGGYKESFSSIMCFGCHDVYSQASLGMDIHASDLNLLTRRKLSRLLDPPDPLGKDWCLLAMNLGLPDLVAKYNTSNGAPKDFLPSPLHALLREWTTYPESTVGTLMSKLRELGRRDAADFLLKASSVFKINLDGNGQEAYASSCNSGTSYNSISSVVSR

Compound | % ACTIVITY ([2]; 100 nM) [%] | LK-mediated increase in ATF-3 [3] | dephosphorylation of GSK3β in LK [4] | % ACTIVITY ([7]; 100 nM) [%] | % ACTIVITY ([7]; 500 nM) [%] | % ACTIVITY ([8]; 100 nM) [%] | % ACTIVITY ([9]; 100 nM) [%] | % ACTIVITY ([9]; 500 nM) [%] | % ACTIVITY ([10]; 100 nM) [%] | % ACTIVITY ([11]; 100 nM) [%] | other results
O=C1Nc2ccccc2OC1=Cc1cc(Br)c(O)c(Br)c1 [ASK-2a] | 92 | inhibited | inhibit dephosphorylation | 98 | 95 | 100 | 100 | 98 | 101 | 95 | % ACTIVITY ([1]; 100 nM, 0.1 µM): 79%; % ACTIVITY [1, 12]: inhibited efficiently; % ACTIVITY ([2]; 500 nM): 88%; % ACTIVITY ([5]; 100 nM, 0.1 µM): 76%; % ACTIVITY [5, 12]: inhibited efficiently; % ACTIVITY ([6]; 100 nM, 0.1 µM): 71%; % ACTIVITY [6, 12]: inhibited efficiently; % ACTIVITY ([8]; 500 nM): 96%; % ACTIVITY ([10]; 500 nM): 88%; % ACTIVITY ([11]; 500 nM): 93%
Nc1ccc2c(c1)NC(=O)/C(=C/c1cc(Br)c(O)c(Br)c1)O2 [HSB-13, (Z)-6-amino-2-(3,′5′-dibromo-4′-hydrozybenzylidene)-2H-benzo[b][1,4]oxazin-3(4H)-one] | 97 | inhibited | not inhibited | 96 | 84 | 84 | 99 | 98 | 95 | 98 | % ACTIVITY ([1]; 500 nM): 43%; % ACTIVITY ([5]; 100 nM): 88%; % ACTIVITY ([5]; 500 nM): 43%; % ACTIVITY ([6]; 500 nM): 23%
O=C1Nc2cc(Cl)ccc2O/C1=C\c1cc(Br)c(O)c(Br)c1 [HSB-22] | – | inhibited | inhibit dephosphorylation | – | – | – | – | – | – | – | –
